Assay results reported in the supplement of paper PMC8617591.

Assays:
[1] = test system: Mycobacterium tuberculosis Erdman (autoluminescent); experiment: Einf, fitted maximum growth inhibition of combination (fraction); higher = stronger maximal inhibition
Procedure: (§1)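 DiaMOND equipotent two-drug combination dose responses against autoluminescent M. tuberculosis Erdman in 8 in vitro models. Read-out is OD600, or luminescence for the intracellular and dormancy models, normalised to untreated wells. Hill-fit Einf, AUC25 and GRinf are potency metrics; FIC50 and FIC90 are Loewe-additivity fractional inhibitory concentrations, given as log2 (negative = synergy). Replicates are averaged.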

[2] = test system: Mycobacterium tuberculosis Erdman (autoluminescent); experiment: FIC50 (Loewe) at 50% inhibition (log2); higher = more antagonistic
Procedure: as §1

[3] = test system: Mycobacterium tuberculosis Erdman (autoluminescent); experiment: FIC90 (Loewe) at 90% inhibition (log2); higher = more antagonistic
Procedure: as §1

[4] = test system: Mycobacterium tuberculosis Erdman (autoluminescent); experiment: GRinf, maximum normalised growth rate inhibition (unitless (-1 to 1)); higher = less effect (negative = killing)
Procedure: as §1

[5] = test system: Mycobacterium tuberculosis Erdman (autoluminescent); experiment: AUC25, normalised area under dose response up to IC25 (fraction (0-1)); higher = more potent at low dose
Procedure: as §1

[6] = in vitro model: acidic pH 5.7, time point: constant (~7 days, model-specific)
[7] = in vitro model: acidic pH 5.7, time point: terminal (~4-5 doublings, model-specific)
[8] = in vitro model: butyrate, time point: constant (~7 days, model-specific)
[9] = in vitro model: butyrate, time point: terminal (~4-5 doublings, model-specific)
[10] = in vitro model: cholesterol 0.05 mM, time point: constant (~7 days, model-specific)
[11] = in vitro model: cholesterol 0.05 mM, time point: terminal (~4-5 doublings, model-specific)
[12] = in vitro model: cholesterol-high 0.2 mM, time point: constant (~7 days, model-specific)
[13] = in vitro model: cholesterol-high 0.2 mM, time point: terminal (~4-5 doublings, model-specific)
[14] = in vitro model: dormancy (butyrate + nitrate, low O2), time point: constant (~7 days, model-specific)
[15] = in vitro model: dormancy (butyrate + nitrate, low O2), time point: terminal (~4-5 doublings, model-specific)
[16] = in vitro model: intracellular J774, time point: constant = terminal
[17] = in vitro model: standard 7H9 glycerol, time point: constant = terminal
[18] = in vitro model: valerate, time point: constant (~7 days, model-specific)
[19] = in vitro model: valerate, time point: terminal (~4-5 doublings, model-specific)

CC(=O)NC[C@H]1CN(c2ccc(N3CCOCC3)c(F)c2)C(=O)O1 [linezolid] + NC(=O)c1cnccn1 [pyrazinamide]
Einf [1, 6]: 0.856 | Einf [1, 7]: 0.985 | Einf [1, 8]: 0.897 | Einf [1, 9]: 0.95 | Einf [1, 10]: 0.724 | Einf [1, 11]: 0.95 | Einf [1, 12]: 0.957 | Einf [1, 13]: 0.999 | Einf [1, 14]: 0.878 | Einf [1, 15]: 0.823 | Einf [1, 16]: 0.948 | Einf [1, 17]: 0.939 | Einf [1, 18]: 0.798 | Einf [1, 19]: 0.892 | FIC50 [2, 6]: 0.463 | FIC50 [2, 7]: 0.393 | FIC50 [2, 8]: -0.211 | FIC50 [2, 9]: -0.152 | FIC50 [2, 11]: 0.09 | FIC50 [2, 12]: 0.0387 | FIC50 [2, 13]: 0.0483 | FIC50 [2, 14]: 0.507 | FIC50 [2, 15]: 0.0853 | FIC50 [2, 17]: 0.336 | FIC50 [2, 18]: -0.432 | FIC50 [2, 19]: -0.271 | FIC90 [3, 7]: -1.67 | FIC90 [3, 8]: 1.73 | FIC90 [3, 9]: 0.565 | FIC90 [3, 13]: 0.383 | FIC90 [3, 14]: 0.733 | FIC90 [3, 15]: 1.09 | FIC90 [3, 16]: 0.0529 | FIC90 [3, 19]: 1.25 | GRinf [4, 6]: -0.176 | GRinf [4, 7]: -0.358 | GRinf [4, 8]: 0.0498 | GRinf [4, 9]: 0.0146 | GRinf [4, 10]: -0.126 | GRinf [4, 11]: -0.256 | GRinf [4, 12]: -0.407 | GRinf [4, 13]: -0.83 | GRinf [4, 14]: 0.236 | GRinf [4, 15]: 0.182 | GRinf [4, 16]: -0.235 | GRinf [4, 17]: -0.0617 | GRinf [4, 18]: 0.131 | GRinf [4, 19]: 0.137 | AUC25 [5, 6]: 0.0815 | AUC25 [5, 7]: 0.0982 | AUC25 [5, 8]: 0.119 | AUC25 [5, 9]: 0.0989 | AUC25 [5, 10]: 0.142 | AUC25 [5, 11]: 0.141 | AUC25 [5, 12]: 0.114 | AUC25 [5, 13]: 0.115 | AUC25 [5, 14]: 0.0601 | AUC25 [5, 15]: 0.0422 | AUC25 [5, 17]: 0.0807 | AUC25 [5, 18]: 0.0877 | AUC25 [5, 19]: 0.0556

CC(=O)NC[C@H]1CN(c2ccc(N3CCOCC3)c(F)c2)C(=O)O1 [linezolid] + O=[N+]([O-])c1cn2c(n1)OC[C@@H](OCc1ccc(OC(F)(F)F)cc1)C2 [pretomanid]
Einf [1, 6]: 0.89 | Einf [1, 7]: 0.984 | Einf [1, 8]: 0.907 | Einf [1, 9]: 0.947 | Einf [1, 10]: 0.708 | Einf [1, 11]: 0.942 | Einf [1, 12]: 0.869 | Einf [1, 13]: 0.992 | Einf [1, 14]: 0.925 | Einf [1, 15]: 0.991 | Einf [1, 16]: 0.993 | Einf [1, 17]: 0.971 | Einf [1, 18]: 0.802 | Einf [1, 19]: 0.951 | FIC50 [2, 6]: 0.583 | FIC50 [2, 7]: 0.324 | FIC50 [2, 8]: 0.595 | FIC50 [2, 9]: 0.4 | FIC50 [2, 10]: -0.367 | FIC50 [2, 11]: -0.293 | FIC50 [2, 12]: -0.451 | FIC50 [2, 13]: -0.228 | FIC50 [2, 14]: 0.74 | FIC50 [2, 15]: 0.255 | FIC50 [2, 17]: 0.34 | FIC50 [2, 18]: 1.02 | FIC50 [2, 19]: -0.689 | FIC90 [3, 7]: 0.246 | FIC90 [3, 8]: 1.47 | FIC90 [3, 9]: 0.493 | FIC90 [3, 11]: 0.00527 | FIC90 [3, 12]: -0.477 | FIC90 [3, 13]: 0.311 | FIC90 [3, 14]: 0.509 | FIC90 [3, 15]: 0.232 | FIC90 [3, 16]: 1.06 | FIC90 [3, 17]: 0.309 | FIC90 [3, 19]: 0.943 | GRinf [4, 6]: -0.559 | GRinf [4, 7]: -0.355 | GRinf [4, 8]: 0.0334 | GRinf [4, 9]: 0.0161 | GRinf [4, 10]: -0.103 | GRinf [4, 11]: -0.182 | GRinf [4, 12]: -0.114 | GRinf [4, 13]: -0.548 | GRinf [4, 14]: 0.0858 | GRinf [4, 15]: -0.248 | GRinf [4, 16]: -0.54 | GRinf [4, 17]: -0.171 | GRinf [4, 18]: 0.0728 | GRinf [4, 19]: 0.0215 | AUC25 [5, 6]: 0.116 | AUC25 [5, 7]: 0.0893 | AUC25 [5, 8]: 0.0973 | AUC25 [5, 9]: 0.0643 | AUC25 [5, 10]: 0.13 | AUC25 [5, 11]: 0.142 | AUC25 [5, 12]: 0.0977 | AUC25 [5, 13]: 0.111 | AUC25 [5, 14]: 0.0359 | AUC25 [5, 15]: 0.0385 | AUC25 [5, 17]: 0.0819 | AUC25 [5, 18]: 0.102 | AUC25 [5, 19]: 0.123

COc1c(N2C[C@@H]3CCCN[C@@H]3C2)c(F)cc2c(=O)c(C(=O)O)cn(C3CC3)c12 [moxifloxacin] + CO[C@H]1/C=C/O[C@@]2(C)Oc3c(C)c(O)c4c(O)c(c(/C=N/N5CCN(C6CCCC6)CC5)c(O)c4c3C2=O)NC(=O)/C(C)=C\C=C\[C@H](C)[C@H](O)[C@@H](C)[C@@H](O)[C@@H](C)[C@H](OC(C)=O)[C@@H]1C [rifapentine]
Einf [1, 6]: 0.776 | Einf [1, 7]: 0.962 | Einf [1, 8]: 0.893 | Einf [1, 9]: 0.956 | Einf [1, 10]: 0.594 | Einf [1, 11]: 0.887 | Einf [1, 12]: 0.903 | Einf [1, 13]: 0.996 | Einf [1, 14]: 0.915 | Einf [1, 15]: 0.985 | Einf [1, 16]: 0.973 | Einf [1, 17]: 0.893 | Einf [1, 18]: 0.844 | Einf [1, 19]: 0.933 | FIC50 [2, 6]: 0.389 | FIC50 [2, 7]: 0.463 | FIC50 [2, 8]: 0.555 | FIC50 [2, 9]: 0.515 | FIC50 [2, 10]: 0.777 | FIC50 [2, 11]: 0.482 | FIC50 [2, 12]: 0.798 | FIC50 [2, 13]: 0.807 | FIC50 [2, 14]: 0.269 | FIC50 [2, 15]: 0.72 | FIC50 [2, 17]: 0.509 | FIC50 [2, 18]: 0.4 | FIC50 [2, 19]: 0.541 | FIC90 [3, 7]: 0.271 | FIC90 [3, 8]: 0.73 | FIC90 [3, 9]: 0.586 | FIC90 [3, 11]: 1.32 | FIC90 [3, 12]: -0.159 | FIC90 [3, 13]: 0.727 | FIC90 [3, 14]: 0.0994 | FIC90 [3, 15]: 0.719 | FIC90 [3, 16]: 0.684 | FIC90 [3, 17]: 0.225 | FIC90 [3, 19]: 1.69 | GRinf [4, 6]: 0.0776 | GRinf [4, 7]: -0.0233 | GRinf [4, 8]: 0.0724 | GRinf [4, 9]: 0.0272 | GRinf [4, 10]: -0.074 | GRinf [4, 11]: -0.0906 | GRinf [4, 12]: -0.242 | GRinf [4, 13]: -0.866 | GRinf [4, 14]: 0.17 | GRinf [4, 15]: -0.231 | GRinf [4, 16]: -0.226 | GRinf [4, 17]: 0.0707 | GRinf [4, 18]: 0.0459 | GRinf [4, 19]: 0.0582 | AUC25 [5, 6]: 0.0469 | AUC25 [5, 7]: 0.0544 | AUC25 [5, 8]: 0.0933 | AUC25 [5, 9]: 0.0734 | AUC25 [5, 10]: 0.131 | AUC25 [5, 11]: 0.0876 | AUC25 [5, 12]: 0.082 | AUC25 [5, 13]: 0.0641 | AUC25 [5, 14]: 0.0771 | AUC25 [5, 15]: 0.0532 | AUC25 [5, 17]: 0.0584 | AUC25 [5, 18]: 0.0746 | AUC25 [5, 19]: 0.0547
